The values that follow come from EP0390112B1, “Selective adenosine receptor agents” (MERRELL PHARMACEUTICALS INC., priority 1989, dated 1990).

In one assay the target is A-2 receptors. The following applies: brain slice assay; cited from earlier work.
The target in the next assay is T1, Adenosine A-1 receptor (Rattus norvegicus, UniProt P25099).
T1 construct: the membranes are isolated from whole animal brains; from tissue; host or cells: whole brain of male Sprague-Dawley rats
T1 sequence (P25099 1-326): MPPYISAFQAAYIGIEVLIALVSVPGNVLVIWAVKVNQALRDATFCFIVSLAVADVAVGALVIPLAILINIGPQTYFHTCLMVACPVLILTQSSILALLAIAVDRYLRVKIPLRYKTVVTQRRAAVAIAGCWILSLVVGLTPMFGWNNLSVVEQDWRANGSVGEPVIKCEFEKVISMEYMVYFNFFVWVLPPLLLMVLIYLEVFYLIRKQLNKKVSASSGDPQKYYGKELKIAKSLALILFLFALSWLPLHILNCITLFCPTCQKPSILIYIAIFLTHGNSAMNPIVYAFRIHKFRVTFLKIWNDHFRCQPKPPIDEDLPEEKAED
Description: Test for affinity for brain adenosine A-1 receptor binding sites ([3H]cyclohexyladenosine competition). The following applies: [3H]cyclohexyladenosine 0.8 nM, rat brain membranes, 25°C, 2 hours. From the text: Test For Affinity For Brain Adenosine A-1 Receptor Binding Sites
The test described below is used to determine the potency of test compounds to compete with the ligand [3H]cycloadenosine for the Adenosine A-1 receptor prepared from rat brain membranes. Male Sprague-Dawley rats are sacrificed by decapitation and the membranes are isolated from whole animal brains. (See R. Goodman, M. Cooper, M. Gavish, and S. Synder, Guanine Nucleotide and Cation Regulation of the Binding of [3H] Diethylphenylxanthine to Adenosine A-1 Receptors in Brain Membrane, Molecular Pharmacology, 21, 329-335, (1982), incorporated herein by reference.)
Membranes are homogenized (using polytron setting 7 for 10 seconds) in 25 volumes of ice-cold 50 mM Tris-HCl buffer, pH 7.7. The homogenate is centrifuged at 19,000 rpm for 10 minutes at 4°C. The pellet is washed by resuspending in 25 volumes of buffer with 2 IU of adenosine deaminase per ml and incubated 30 minutes at 37°C. The homogenate is centrifuged again. The final pellet is resuspended in 25 volumes of ice-cold buffer.
The incubation tubes, in triplicate, receive 100 µl of [3H]cyclohexyladenosine, 0.8 nM in the assay, 200 µl of test compounds at various concentrations over the range of 10^-10 M to 10^-6 M diluted with […] Tris-HCl buffer (pH 7.7), 0.2 ml of membrane suspension (8 mg wet weight) and in a final volume of 2 ml with Tris buffer. Incubations are carried out at 25°C for 2 hours and each one is terminated within 10 seconds by filtration through a GF/B glass fiber filter using a vacuum. The membranes on the filters are transferred to scintillation vials. The filters are counted by liquid scintillation spectometry in 8 ml of Omniflour containing 5% Protosol.
Specific binding of [3H]cycloadenosine is measured as the excess over blanks taken in the presence of 10^-5 M 2-chloroadenosine. Total membrane-bound radioactivity is about 5% of that added to the test tubes. Specific binding to membranes is about 90% of the total bound. Protein content of the membrane suspension is determined by the method of Lowry, et al. Id., 265.
Displacement of [3H]cyclohexyladenosine binding of 15% or more by a test compound is indicative of affinity for the adenosine binding site.

A further assay addresses T2, adenosine A-2 receptors (Rattus norvegicus, UniProt P30543).
T2 construct: the adenosine A-2 receptors prepared from animal brain membranes; from tissue; host or cells: striatum of young male rats (C-D strain, Charles River)
Description: Test for affinity for brain adenosine A-2 receptors ([3H]NECA competition). The assay is classed as binding. To be noted: rat brain striatum membranes, 25°C, 60 minutes, read-out: A-2 Receptor Ki. From the text:
Test For Affinity For Brain Adenosine A-2 Receptors
The test described below was used to determine the potency of test compounds to compete with the ligand [3H]5′-N-ethyl-carboxamidoadenosine (NECA) for the adenosine A-2 receptors prepared from animal brain membranes. (See also R.R. Bruns, G.H. Lu, and T.A. Pugsley, Characterization of the A-2 Adenosine Receptor Labeled by [3H]NECA in Rat Striatal Membranes, Mol. Pharmacol., 29, 331-346, (1986), incorporated herein by reference.) Young male rats (C-D strain), obtained from Charles River, are killed by decapitation and the brain was removed. Membranes for ligand binding are isolated from rat brain striatum. The tissue is homogenized in 20 vol ice-cold 50 mM Tris-HCl buffer (pH 7.7) using a polytron (setting 6 for 20 seconds). The homogenate is centrifuged at 50,000 x g for 10 minutes at 4°C. The pellet is again homogenized in a polytron in 20 vol of buffer, and centrifuged as before. The pellet is finally resuspended in 40 vol of 50mM Tris-HCl (pH 7.7) per gram of original wet weight of tissue.
Incubation tubes, in triplicate, receive 100 µl of [3H]NECA (94 nM in the assay), 100 µl of 1 µM cyclohexyladenosine (CHA), 100 µl of 100 mM MgCl2, 100 µl of 1 IU/ml adenosine deaminase, 100 µl of test compounds at various concentrations over the range of 10^-10 M to 10^-4 M diluted with assay buffer (50 mM Tris-HCl, pH 7.7) and […] of membrane suspension (5 mg wet weight), in a final volume of 1 ml of 50 mM Tris-HCl, pH 7.7. Incubations are carried out at 25°C for 60 minutes. Each tube is filtered through GF/B glass fiber filters using a vacuum. The filters are rinsed two times with 5 ml of the ice-cold buffer. The membranes on the filters are transferred to scintillation vials to which 8 ml of Omnifluor with 5% Protosol is added. The filters are counted by liquid scintillation spectrometry.
Specific binding of [3H]NECA is measured as the excess over blanks run in the presence of 100 µM 2-chloroadenosine. Total membrane-bound radioactivity is about 2.5% of that added to the test tubes. […] Specific binding to membranes is about 50% of the total bound. Protein content of the membrane suspension is determined by the method of O.H. Lowry, N.J. Rosebrough, A.L. Farr and R.J. Randall, Protein Measurements With Folin Phenol Reagent, J. Biol. Chem., 193, 265-275 (1951), (incorporated herein by reference).
Displacement of [3H]NECA binding of 15% or more by a test compound is indicative of affinity for the adenosine A-2 site. The molar concentration of a compound which causes 50% inhibition of the binding of ligand is the IC50.

T2 sequence (P30543 whole entry): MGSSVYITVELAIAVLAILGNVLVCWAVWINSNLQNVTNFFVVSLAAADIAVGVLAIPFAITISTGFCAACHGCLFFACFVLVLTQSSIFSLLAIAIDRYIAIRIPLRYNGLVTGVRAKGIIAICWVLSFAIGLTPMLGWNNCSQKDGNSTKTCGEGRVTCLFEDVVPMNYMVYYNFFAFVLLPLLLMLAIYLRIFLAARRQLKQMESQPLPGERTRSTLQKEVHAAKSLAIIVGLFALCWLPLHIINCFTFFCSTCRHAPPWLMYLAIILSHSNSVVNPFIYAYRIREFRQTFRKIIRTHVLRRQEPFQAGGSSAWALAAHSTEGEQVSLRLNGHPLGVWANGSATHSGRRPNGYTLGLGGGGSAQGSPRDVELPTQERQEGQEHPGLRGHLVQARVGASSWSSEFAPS

As for `CCCn1c(=O)c2[nH]c(-c3ccc(OCC(=O)O)cc3)nc2n(CCC)c1=O` [XCC, carboxylic acid congener of 8-phenyl-1,3-dipropyl-xanthine], on A-2 receptors, the Ki (commonly the dissociation constant of the complex between target and ligand, obtained from inhibition or displacement) is 34 ± 13 nM.
Turning to `CCCn1c(=O)c2[nH]c(-c3ccc(OCC(=O)NCCN)cc3)nc2n(CCC)c1=O` [XAC, amino congener of 8-phenyl-1,3-dipropyl-xanthine], at A-2 receptors, the Ki is 49 ± 17 nM.
In the case of `CCCOc1nc(N[C@@H](C)Cc2ccccc2)c2cnn(-c3ccccc3)c2n1` [Compound 2, (S)-N-(1-methyl-2-phenylethyl)-1-phenyl-6-propoxy-1H-pyrazolo[3,4-d]pyrimidin-4-amine], the results for the Ki on Adenosine A-1 receptor and at adenosine A-2 receptors were 11300 nM and over 6990 nM, respectively.
Take `CCCOc1nc(N[C@@H](CO)Cc2ccccc2)c2ncn([C@@H]3O[C@H](CO)[C@@H](O)[C@H]3O)c2n1` [Compound 5]: the figures for the Ki on Adenosine A-1 receptor and at adenosine A-2 receptors were 3700 nM and 17200 nM, respectively.
As to `CCCOc1nc(N[C@H](CO)Cc2ccccc2)c2cnn(-c3ccccc3)c2n1` [Compound 3, (S)-β-[(1-phenyl-6-propoxy-1H-pyrazolo[3,4-d]pyrimidin-4-yl)amino]benzenepropanol], the Ki on Adenosine A-1 receptor stood at 1740 nM; on adenosine A-2 receptors it was 2900 nM.
With `CCCOc1nc(N[C@H](C)Cc2ccccc2)c2cnn(-c3ccccc3)c2n1` [Compound 1, (R)-N-(1-methyl-2-phenylethyl)-1-phenyl-6-propoxy-1H-pyrazolo[3,4-d]pyrimidin-4-amine], the Ki on Adenosine A-1 receptor worked out at 2010 nM; at adenosine A-2 receptors, 3630 nM.
As for `CCCOc1nc(N[C@H](CO)Cc2ccccc2)c2ncn([C@@H]3O[C@H](CO)[C@@H](O)[C@H]3O)c2n1` [Compound 6], the Ki on Adenosine A-1 receptor came to 44 nM; on adenosine A-2 receptors, 1900 nM.
Taken in the same sequence, the figures for `CCCOc1nc(N[C@@H](CO)Cc2ccccc2)c2cnn(-c3ccccc3)c2n1` [Compound 4, (R)-β-[(1-phenyl-6-propoxy-1H-pyrazolo[3,4-d]pyrimidin-4-yl)amino]benzenepropanol] were 321 nM and 377 nM.
